Results on 11 compounds are retold here after patent publication US20070049564A1 (Wyeth, priority 2005, published 2007).

≈ marks a conversion by molar mass, not a printed value. Like-named read-outs stand apart in the source and are kept apart here. A value given as a limit tells only on which side of the number the result lay.

For one experiment, the system named is E. coli. The experiment can be described thus: Range of MIC for E. coli strains. Conditions: Escherichia coli.
A further experiment concerns Staph. The experiment can be described thus: Range of MIC for Staph. strains, including MRSA. Conditions: Staphylococcus aureus, MRSA.
[1] abbreviates: 20 h, read-out: Range of MIC, E. coli (Mouse Serum).
The mark [2] stands for this setting: read-out: Range of MIC, E. coli (Water).
The mark [3] stands for this setting: read-out: Range of MIC, Staph (Mouse Serum).
The mark [4] stands for this setting: read-out: Range of MIC, Staph (Water).

As usually defined, the MIC is the lowest concentration found to suppress growth. For `CN(C)c1cc(NC(=O)CN(C(=O)OCOC(=O)c2ccc3ccccc3n2)C(C)(C)C)c(O)c2c1C[C@H]1C[C@H]3[C@H](N(C)C)C(O)=C(C(N)=O)C(=O)[C@@]3(O)C(O)=C1C2=O` [Example 84, ({[(2-{[(5aR,6aS,7S,10aS)-9-(aminocarbonyl)-4,7-bis(dimethylamino)-1,8,10a,11-tetrahydroxy-10,12-dioxo-5,5a,6,6a,7,10,10a,12-octahydrotetracen-2-yl]amino}-2-oxoethyl)(tert-butyl)amino]carbonyl}oxy)methyl quinoline-2-carboxylate], the MIC is 2 to 4 µg/mL (≈ 2.45 to 4.91 µM) in the experiment with E. coli (setting [1]), above 64 µg/mL in the experiment on E. coli (setting [2]), 0.5 to 2 µg/mL (≈ 0.614 to 2.45 µM) in the experiment on Staph. (setting [3]) and 0.5 to 4 µg/mL (≈ 0.614 to 4.91 µM) with Staph. (setting [4]).
Consider `CCC(CC)C(=O)OCOC(=O)Nc1cc(N(C)C)c2c(c1O)C(=O)C1=C(O)[C@]3(O)C(=O)C(C(N)=O)=C(O)[C@@H](N(C)C)[C@@H]3C[C@@H]1C2` [Example 85, [({[(5aR,6aS,7S,10aS)-9-(aminocarbonyl)-4,7-bis(dimethylamino)-1,8,10a,11-tetrahydroxy-10,12-dioxo-5,5a,6,6a,7,10,10a,12-octahydrotetracen-2-yl]amino}carbonyl)oxy]methyl 2-ethylbutanoate], for which the MIC in the experiment with E. coli (setting [1]) was 1 to 2 µg/mL (≈ 1.55 to 3.1 µM); in the experiment with E. coli (setting [2]) it was above 64 µg/mL; in the experiment on Staph. (setting [3]), 1 to 2 µg/mL (≈ 1.55 to 3.1 µM); in the experiment with Staph. (setting [4]), 4 to 16 µg/mL (≈ 6.2 to 24.8 µM).
For `CN(C)c1cc(NC(=O)OCOC(=O)CC2CCCC2)c(O)c2c1C[C@H]1C[C@H]3[C@H](N(C)C)C(O)=C(C(N)=O)C(=O)[C@@]3(O)C(O)=C1C2=O` [Example 86, [({[(5aR,6aS,7S,10aS)-9-(aminocarbonyl)-4,7-bis(dimethylamino)-1,8,10a,11-tetrahydroxy-10,12-dioxo-5,5a,6,6a,7,10,10a,12-octahydrotetracen-2-yl]amino}carbonyl)oxy]methyl cyclopentylacetate], the MIC in the experiment on E. coli (setting [1]) is 8 to 16 µg/mL (≈ 12.2 to 24.4 µM); in the experiment with E. coli (setting [2]), above 64 µg/mL; in the experiment on Staph. (setting [3]), 2 to 8 µg/mL (≈ 3.05 to 12.2 µM); in the experiment on Staph. (setting [4]) it was 8 µg/mL (≈ 12.2 µM).
The like results for `CN(C)c1cc(NC(=O)CN(C(=O)OCOC(=O)c2cccnc2)C(C)(C)C)c(O)c2c1C[C@H]1C[C@H]3[C@H](N(C)C)C(O)=C(C(N)=O)C(=O)[C@@]3(O)C(O)=C1C2=O` [Example 88, ({[(2-{[(5aR,6aS,7S,10aS)-9-(aminocarbonyl)-4,7-bis(dimethylamino)-1,8,10a,11-tetrahydroxy-10,12-dioxo-5,5a,6,6a,7,10,10a,12-octahydrotetracen-2-yl]amino}-2-oxoethyl)(tert-butyl)amino]carbonyl}oxy)methyl nicotinate] were, in that order, 0.5 to 2 µg/mL (≈ 0.654 to 2.62 µM), 8 to 16 µg/mL (≈ 10.5 to 20.9 µM), 1 to 4 µg/mL (≈ 1.31 to 5.23 µM) and 4 to 16 µg/mL (≈ 5.23 to 20.9 µM).
In the same order, the values of `CN(C)c1cc(NC(=O)CN(C(=O)OCOC(=O)c2ccncc2)C(C)(C)C)c(O)c2c1C[C@H]1C[C@H]3[C@H](N(C)C)C(O)=C(C(N)=O)C(=O)[C@@]3(O)C(O)=C1C2=O` [Example 89, ({[(2-{[(5aR,6aS,7S,10aS)-9-(aminocarbonyl)-4,7-bis(dimethylamino)-1,8,10a,11-tetrahydroxy-10,12-dioxo-5,5a,6,6a,7,10,10a,12-octahydrotetracen-2-yl]amino}-2-oxoethyl)(tert-butyl)amino]carbonyl}oxy)methyl isonicotinate] are 0.25 to 1 µg/mL (≈ 0.327 to 1.31 µM), 4 to 8 µg/mL (≈ 5.23 to 10.5 µM), 0.5 to 1 µg/mL (≈ 0.654 to 1.31 µM) and 1 to 4 µg/mL (≈ 1.31 to 5.23 µM).
In the case of `CN(C)c1cc(NC(=O)CN(C(=O)OCOC(=O)c2ccccc2C(F)(F)F)C(C)(C)C)c(O)c2c1C[C@H]1C[C@H]3[C@H](N(C)C)C(O)=C(C(N)=O)C(=O)[C@@]3(O)C(O)=C1C2=O` [Example 92], the MIC with E. coli (setting [1]) was 4 to 8 µg/mL (≈ 4.81 to 9.62 µM); in the experiment on E. coli (setting [2]), above 64 µg/mL; in the experiment on Staph. (setting [3]), 4 µg/mL (≈ 4.81 µM); in the experiment on Staph. (setting [4]), 8 to 32 µg/mL (≈ 9.62 to 38.5 µM).
Take `CN(C)c1cc(NC(=O)CN(C(=O)OCOC(=O)c2ccccc2-c2ccccc2)C(C)(C)C)c(O)c2c1C[C@H]1C[C@H]3[C@H](N(C)C)C(O)=C(C(N)=O)C(=O)[C@@]3(O)C(O)=C1C2=O` [Example 94, ({[(2-{[(5aR,6aS,7S,10aS)-9-(aminocarbonyl)-4,7-bis(dimethylamino)-1,8,10a,11-tetrahydroxy-10,12-dioxo-5,5a,6,6a,7,10,10a,12-octahydrotetracen-2-yl]amino}-2-oxoethyl)(tert-butyl)amino]carbonyl}oxy)methyl 1,1′-biphenyl-2-carboxylate]: the minimal inhibitory concentration (MIC) in the experiment with E. coli (setting [1]) is 32 to 64 µg/mL (≈ 38.1 to 76.2 µM); with E. coli (setting [2]), above 64 µg/mL; in the experiment on Staph. (setting [3]), 16 to 32 µg/mL (≈ 19 to 38.1 µM); in the experiment on Staph. (setting [4]), above 64 µg/mL.
As for `Cc1cc(C)c(C(=O)OCOC(=O)N(CC(=O)Nc2cc(N(C)C)c3c(c2O)C(=O)C2=C(O)[C@]4(O)C(=O)C(C(N)=O)=C(O)[C@@H](N(C)C)[C@@H]4C[C@@H]2C3)C(C)(C)C)c(C)c1` [Example 95, ({[(2-{[(5aR,6aS,7S,10aS)-9-(aminocarbonyl)-4,7-bis(dimethylamino)-1,8,10a,11-tetrahydroxy-10,12-dioxo-5,5a,6,6a,7,10,10a,12-octahydrotetracen-2-yl]amino}-2-oxoethyl)(tert-butyl)amino]carbonyl}oxy)methyl 2,4,6-trimethylbenzoate], the MIC with E. coli (setting [1]), in the experiment with E. coli (setting [2]) and in the experiment on Staph. (setting [4]) was above 64 µg/mL each time.
For `COc1cc(C(=O)OCOC(=O)N(CC(=O)Nc2cc(N(C)C)c3c(c2O)C(=O)C2=C(O)[C@]4(O)C(=O)C(C(N)=O)=C(O)[C@@H](N(C)C)[C@@H]4C[C@@H]2C3)C(C)(C)C)cc(OC)c1OC` [Example 97, ({[(2-{[(5aR,6aS,7S,10aS)-9-(aminocarbonyl)-4,7-bis(dimethylamino)-1,8,10a,11-tetrahydroxy-10,12-dioxo-5,5a,6,6a,7,10,10a,12-octahydrotetracen-2-yl]amino}-2-oxoethyl)(tert-butyl)amino]carbonyl}oxy)methyl 3,4,5-trimethoxybenzoate], the MIC was 4 to 8 µg/mL (≈ 4.68 to 9.37 µM) with E. coli (setting [1]), above 64 µg/mL with E. coli (setting [2]), 1 to 4 µg/mL (≈ 1.17 to 4.68 µM) in the experiment with Staph. (setting [3]) and 4 to 8 µg/mL (≈ 4.68 to 9.37 µM) with Staph. (setting [4]).
Consider `COc1cc(OC)cc(C(=O)OCOC(=O)N(CC(=O)Nc2cc(N(C)C)c3c(c2O)C(=O)C2=C(O)[C@]4(O)C(=O)C(C(N)=O)=C(O)[C@@H](N(C)C)[C@@H]4C[C@@H]2C3)C(C)(C)C)c1` [Example 98, ({[(2-{[(5aR,6aS,7S,10aS)-9-(aminocarbonyl)-4,7-bis(dimethylamino)-1,8,10a,11-tetrahydroxy-10,12-dioxo-5,5a,6,6a,7,10,10a,12-octahydrotetracen-2-yl]amino}-2-oxoethyl)(tert-butyl)amino]carbonyl}oxy)methyl 3,5-dimethoxybenzoate], for which the MIC was 1 to 4 µg/mL (≈ 1.21 to 4.86 µM) in the experiment with E. coli (setting [1]), above 64 µg/mL with E. coli (setting [2]), 0.5 to 2 µg/mL (≈ 0.607 to 2.43 µM) with Staph. (setting [3]) and 2 to 4 µg/mL (≈ 2.43 to 4.86 µM) with Staph. (setting [4]).
For `CN(C)c1cc(NC(=O)CN(C(=O)OCOC(=O)/C=C/c2ccccc2)C(C)(C)C)c(O)c2c1C[C@H]1C[C@H]3[C@H](N(C)C)C(O)=C(C(N)=O)C(=O)[C@@]3(O)C(O)=C1C2=O` [Example 99, ({[(2-{[(5aR,6aS,7S,10aS)-9-(aminocarbonyl)-4,7-bis(dimethylamino)-1,8,10a,11-tetrahydroxy-10,12-dioxo-5,5a,6,6a,7,10,10a,12-octahydrotetracen-2-yl]amino}-2-oxoethyl)(tert-butyl)amino]carbonyl}oxy)methyl (2E)-3-phenylprop-2-enoate], the MIC in the experiment with E. coli (setting [1]) is 1 to 2 µg/mL (≈ 1.27 to 2.53 µM); in the experiment with E. coli (setting [2]), above 64 µg/mL; with Staph. (setting [3]), 0.5 to 2 µg/mL (≈ 0.633 to 2.53 µM); in the experiment on Staph. (setting [4]) it was 2 to 4 µg/mL (≈ 2.53 to 5.06 µM).
